Laboratory results from patent EP2185126B1, “USE OF TROXERUTIN TO QUENCH THE FLUORESCENCE OF DISODIUM PHENYL DIBENZIMIDAZOLE TETRASULFONATE” (Symrise AG, priority 2007, dated 2007).

Experiments:
[1] = Colour and colour stability of emulsion on storage; format: physicochemical; conditions: emulsion prepared with the substance
Solubility in water = format: physicochemical

| Compound | colour / colour stability of emulsion [1] | solubility in water (Solubility in water) |
| --- | --- | --- |
| COc1ccc([C@@H]2CC(=O)c3c(O)cc(O[C@@H]4O[C@H](CO[C@@H]5O[C@@H](C)[C@H](O)[C@@H](O)[C@H]5O)[C@@H](O)[C@H](O)[C@H]4O)cc3O2)cc1O [hesperidin] | less susceptible to colouration problems than other flavone derivatives | poorly soluble in water |
| C[C@@H]1O[C@@H](O[C@H]2[C@H](Oc3cc(O)c4c(c3)O[C@H](c3ccc(O)cc3)CC4=O)O[C@H](CO)[C@@H](O)[C@@H]2O)[C@H](O)[C@H](O)[C@H]1O [naringin] | less susceptible to colouration problems than other flavone derivatives | poorly soluble in water |
| O=c1c(O)c(-c2ccc(O)c(O)c2)oc2cc(O)cc(O)c12 [quercetin] | deeply yellow in colour |  |
| C[C@@H]1O[C@@H](OC[C@H]2O[C@@H](Oc3c(-c4ccc(O)c(O)c4)oc4cc(O)cc(O)c4c3=O)[C@H](O)[C@@H](O)[C@@H]2O)[C@H](O)[C@H](O)[C@H]1O [rutin] | beige in colour and on storage turns dark brown |  |
| C[C@@H]1O[C@@H](OC[C@H]2O[C@@H](Oc3c(-c4ccc(OCCO)c(OCCO)c4)oc4cc(OCCO)cc(O)c4c3=O)[C@H](O)[C@@H](O)[C@@H]2O)[C@H](O)[C@H](O)[C@H]1O [troxerutin, 7,3',4'-tris[O-(2-hydroxyethyl)]rutin] | long term colour stability | ease of solubility in water |
